“Also recorded” adds a separate entry of the source. Counter-ions that a name gives are not always drawn.
Experiments:
C57BL/6 mice [1] = test: Intestinal transit time with 70-kDa FITC-dextran; assay type: in vivo; settings: compared to saline-treated mice
intestinal organoids = test: Intestinal organoids treated with CPT-11 with or without morphine; settings: CPT-11 in the presence or absence of morphine
C57BL/6 mice [2] = test: CPT-11-induced GI toxicity in mice; settings: for CPT-11-induced tissue damage in the ileum (histological score): co-administered with CPT-11 75 mg/kg, compared with CPT-11 alone
[3] = Analgesic efficacy of morphine with CPT-11; assay type: in vivo; settings: CPT-11 co-administration
[4] = tested on: MC38 colon adenocarcinoma cells; settings: mouse, in vivo
[5] = tested on: MC38 colon adenocarcinoma cells; test: MC38 subcutaneous tumor model, anti-tumor efficacy of CPT-11; settings: MC38 s.c. tumors; compared with saline controls
carboxylesterase (CES) = settings: ref Quinney et al., 2005; cited from earlier work

For `CN1CC[C@]23c4c5ccc(O)c4O[C@H]2[C@@H](O)C=C[C@H]3[C@H]1C5` [morphine, Morphine sulfate], the gut transit time (C57BL/6 mice [1]) was “significantly prolonged gut transit time”, the “growth of intestinal organoids” value (intestinal organoids) was “did not show any direct effects on CPT-11-treated organoids” and the “CPT-11-induced tissue damage in the large intestine” value (C57BL/6 mice [2]; co-administered with CPT-11) was “showed no effects on CPT-11-induced tissue damage”. For the same compound, the “CPT-11-induced tissue damage in the ileum (histological score)” value (C57BL/6 mice [2]) was “potentiated CPT-11-induced tissue damage in the ileum; also recorded: significantly potentiated CPT-11-induced tissue damage in the small intestines”.
With `CCOc1ccc(NC(=S)N(CCO)Cc2cc3cc(C)cc(C)c3[nH]c2=O)cc1` [Inh-1, 1-((6,8-Dimethyl-2-oxo-1,2-dihydroquinolin-3-yl)methyl)-3-(4-ethoxyphenyl)-1-(2-hydroxyethyl)thiourea] the “intestinal epithelial damage (ileal histology)” value (C57BL/6 mice [2]; Inh-1 in morphine + CPT-11-treated mice) was “rescued the intestinal epithelial damage observed with morphine and CPT-11”.
In the case of `Clc1cccc(Cl)c1N=C1NCCN1` [clonidine, Clonidine hydrochloride], the gut transit time (C57BL/6 mice [1]) is reported as “significantly prolonged gut transit time”.
In the case of `CCc1c2c(nc3ccc(OC(=O)N4CCC(N5CCCCC5)CC4)cc13)-c1cc3c(c(=O)n1C2)COC(=O)[C@]3(O)CC` [CPT-11, Irinotecan hydrochloride], the “analgesic efficacy of morphine” value [3] is reported as “didn’t affect the analgesic efficacy of morphine”, the “body weight loss in tumor-bearing mice” value [4] is reported as “induced weight loss” and the “reduction of tumor sizes” value [5] is reported as 41.6%. The “growth of intestinal organoids” value (intestinal organoids) was “inhibited the growth of crypt stem cells”.
In the case of `CN(C)C(=O)C(CCN1CCC(O)(c2ccc(Cl)cc2)CC1)(c1ccccc1)c1ccccc1` [loperamide, Loperamide], the carboxylesterase inhibition (carboxylesterase (CES)) is given as “inhibitor of carboxylesterase (CES)”, the “CPT-11-induced tissue damage in the ileum (histological score)” value (C57BL/6 mice [2]) is given as “did not significantly exacerbate small intestinal tissue damage” and the weight loss (C57BL/6 mice [2]; oral loperamide + CPT-11 vs CPT-11) is given as “did not significantly exacerbate”.

Source: paper PMC10089971 (British journal of pharmacology, 2023)
